{
  "source": "patent EP0437367A2",
  "about": "“Compositions and methods for inhibiting osteoclast cellular adhesion to bone” (MERCK & CO. INC., priority 1990, dated 1991)",
  "type_in_all_cases": "cell-based",
  "key": {"[1]": {"tested_on": "chicken osteoclasts", "experiment": "resorption by chicken osteoclasts, release of 3H proline from labelled bone particles", "protocol": "Osteoclasts from the long bones of egg laying hens were isolated by the methods of Zambonin Zallone et al. (1989) and Blair et al., J. Cell Biol. 102: 1164-1172 (1986). Medullary bone was harvested with scalpels from split femora and tibiae of laying hens (Dekalb XL) that were on a Ca deficient diet (5070C- 9, Purina Mills Inc., St. Louis) for 3-6 wks. After washing in PBS 4°C, the suspension was pressed through a 110 um nylon mesh and then osmotically shocked in 0.2% NaCl for 3 min 37°C to lyse red blood cells. The cells were collected at 350xg (5 min, 4°C), and osteoclasts were sedimented through 70% serum for 90 min at 4°C in 50 ml tubes (Fisher). The bottom 5 ml was then layered over a 3 step (1.073, 1.099, 1.143 g/cm³) Nycodenz gradient (Accurate, Ct) and spun at 350xg, 20 min, 4°C. […] Cells excluding trypan blue (Gibco) were immediately counted on a hemocytometer (Fisher) and aliquoted at 1-2x 10⁶ total cells (not counting red blood cells)/ well of 48 well plates (Costar), no. […]\nTherefore, for 1 day resorption experiments, unlabelled bone particles (50 ug, <20 um fraction) were first added to chicken cells at day 3 followed by labelled bone (100 ug, 20- 53 um) plus test compounds (Merck) at day 5. Alternatively, labelled bone (100 ug) plus compounds were added at day 3 and the media counted at day 6 with a LKB liquid scintillation counter. […]"}, "[2]": {"tested_on": "chicken osteoclasts", "experiment": "attachment assay of 3H proline labelled bone particles to chicken osteoclasts", "settings": "chicken osteoclasts after 5-6 days culture", "protocol": "Attachment of ³H proline labelled bone particles (20- 53 um) was followed with time by assaying free and bound pools. Chicken osteoclasts in 48 well plates were given 100 ug of labelled bone particles. Free was defined as particles liberated by 3x swirling of cultures with media. Bound was defined as particles liberated after 6 hr incubation and 2x swirling in 1N NaOH. All cells were completely disrupted by the latter treatment. Samples were then ashed in a Packard 306 oxidizer (Camberra Inst., NJ) and counted (LKB).\nFree end bound particles of bone labelled with [³H] proline were assayed as a function of incubation time with chicken osteoclasts after 5-6 days culture at 37°C. […] At this echistatin concentration, resorption was inhibited by 40% with little effect on osteoclast morphology."}, "[3]": {"target": "T1, rat osteoclasts (Rattus norvegicus, UniProt F1LZX9+Q8R2H2)", "T1 sequence (F1LZX9 31-1043)": "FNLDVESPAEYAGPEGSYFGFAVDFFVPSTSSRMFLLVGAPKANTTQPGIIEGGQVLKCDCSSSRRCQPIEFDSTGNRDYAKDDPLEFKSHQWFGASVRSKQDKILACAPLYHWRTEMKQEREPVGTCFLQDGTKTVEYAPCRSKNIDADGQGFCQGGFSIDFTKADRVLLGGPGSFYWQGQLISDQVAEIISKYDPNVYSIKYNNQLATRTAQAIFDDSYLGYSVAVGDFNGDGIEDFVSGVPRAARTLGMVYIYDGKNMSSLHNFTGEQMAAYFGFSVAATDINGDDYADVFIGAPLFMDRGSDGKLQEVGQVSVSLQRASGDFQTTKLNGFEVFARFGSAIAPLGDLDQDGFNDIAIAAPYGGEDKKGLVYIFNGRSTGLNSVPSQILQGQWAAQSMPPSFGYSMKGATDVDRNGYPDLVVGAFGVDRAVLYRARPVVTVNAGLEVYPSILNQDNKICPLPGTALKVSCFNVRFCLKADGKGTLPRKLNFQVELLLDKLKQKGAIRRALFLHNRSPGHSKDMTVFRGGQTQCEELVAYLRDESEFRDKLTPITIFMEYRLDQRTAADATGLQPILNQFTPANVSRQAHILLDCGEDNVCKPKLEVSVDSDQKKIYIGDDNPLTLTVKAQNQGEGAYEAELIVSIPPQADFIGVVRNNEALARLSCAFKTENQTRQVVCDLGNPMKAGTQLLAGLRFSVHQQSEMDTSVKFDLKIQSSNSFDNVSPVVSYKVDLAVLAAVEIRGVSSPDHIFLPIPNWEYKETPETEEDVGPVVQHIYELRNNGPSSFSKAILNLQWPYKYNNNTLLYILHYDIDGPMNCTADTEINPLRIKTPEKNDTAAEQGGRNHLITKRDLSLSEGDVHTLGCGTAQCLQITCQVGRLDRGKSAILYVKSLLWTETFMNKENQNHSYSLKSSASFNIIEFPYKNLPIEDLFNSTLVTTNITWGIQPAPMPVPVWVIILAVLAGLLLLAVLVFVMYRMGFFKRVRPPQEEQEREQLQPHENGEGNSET", "T1 sequence (Q8R2H2 26-787)": "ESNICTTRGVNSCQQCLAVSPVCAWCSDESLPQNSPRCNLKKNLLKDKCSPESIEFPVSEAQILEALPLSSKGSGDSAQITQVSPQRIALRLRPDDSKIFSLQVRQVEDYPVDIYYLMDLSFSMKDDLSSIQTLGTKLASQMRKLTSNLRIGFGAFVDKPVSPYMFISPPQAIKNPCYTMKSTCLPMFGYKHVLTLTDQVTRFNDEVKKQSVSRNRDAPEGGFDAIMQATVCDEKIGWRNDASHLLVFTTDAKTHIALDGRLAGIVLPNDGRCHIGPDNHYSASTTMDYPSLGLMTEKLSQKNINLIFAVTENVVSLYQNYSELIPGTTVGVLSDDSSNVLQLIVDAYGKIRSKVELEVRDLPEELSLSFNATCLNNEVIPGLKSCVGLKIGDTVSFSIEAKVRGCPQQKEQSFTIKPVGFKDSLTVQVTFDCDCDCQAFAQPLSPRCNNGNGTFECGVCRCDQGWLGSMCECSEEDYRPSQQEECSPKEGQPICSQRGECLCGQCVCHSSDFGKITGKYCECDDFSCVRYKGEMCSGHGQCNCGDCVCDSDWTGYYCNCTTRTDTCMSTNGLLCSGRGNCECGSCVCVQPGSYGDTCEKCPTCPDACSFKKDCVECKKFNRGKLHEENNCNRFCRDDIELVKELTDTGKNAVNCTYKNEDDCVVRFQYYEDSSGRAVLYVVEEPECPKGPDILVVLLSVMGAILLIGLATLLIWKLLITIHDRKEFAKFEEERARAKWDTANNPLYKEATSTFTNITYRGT", "experiment": "retraction of lamellipodia of rat osteoclasts", "description": "Osteoclasts were isolated from the long bones of 1-3 day old rats as described by Chambers et al., J. Cell Sci. 66: 383-399 (1984). Femora, tibiae and humera were dissected clean of soft tissue, split and scrapped with scalpels into 199 media pH 7-7.2 + 10% heat inactivated fetal calf serum + 100 U/ml antibiotics (penicillin G, steptomycin, amphotericin B, Gibco, New York). After gentle pipetting 60x with a wide bore pipette, the cell suspension was passed through a 110 um nylon mesh (Spectra) and aliquoted onto plastic dishes (Costar, Cambridge, MA), No. 1 coverslips (Corning, New York), glass cuvettes (Herminus) or bone slices (Arnett and Dempster, Endocrinology 120: 602-608 (1987)). All experiments with rat osteoclast cultures were conducted within the first 24 hr after isolation.\nRat or chicken osteoclasts were incubated with different concentrations of RGDS, echistatin and Ala²⁴ echistatin. All of these peptides induced morphological changes but rat osteoclasts 1 day after isolation on glass retracted lamellipodia at 10⁵x lower concentrations of echistatin (4.3 nM) compared to RGDS peptide. […] At these concentrations, extension/retraction and ruffling motility of the lamellipodia increased. […]"}, "[4]": {"target": "T1, rat osteoclasts", "experiment": "bone slice resorption assay with rat osteoclasts", "settings": "range 1pM- 10 uM, P>0.07, Graph 3a", "protocol": "Osteoclasts, large multinucleated cells up to 400 microns in diameter and with abundant acidophilic cytoplasm which function in the absorption and removal of osseous tissue, use the integrin receptor to bind bone as part of the mechanism of bone resorption. […] Based on the release of [³H] proline from labelled bone particles, the IC₅₀ of chicken osteoclast resorption was 100 nM. By comparison, the RGDS synthetic tetrapeptide inhibited rat or chicken resorption with an IC₅₀ of 0.1 mM. Attachment experiments with chicken osteoclasts and bone particles labelled with [³H] proline confirmed that the mechanism of action of echistatin is to inhibit osteoclast binding to bone. Echistatin induces the retraction of osteoclast lamellipodia in a manner reminiscent of 1 nM calcitonin or 1 uM prostaglandin E₂.\nOsteoclasts were isolated from the long bones of 1-3 day old rats as described by Chambers et al., J. Cell Sci. 66: 383-399 (1984). […]\nResorption of rat and some chicken osteoclasts was measured by using bone slices (4.4 x 4.4 x 0.2 mm) from the diaphysis of bovine femur (Isomet, Buehler Ltd., Lake Bluff, IL) which were cut with a low speed diamond saw as described by Arnett and Dempster, 1986. […] Resorption pits were quantitated by reflected light microscopy with crossed polarizers and rotatable lambda/4 plate (Sato and Grasser, J. Bone Min. Res. in press)."}},
  "note": "Bridge positions count the residues as written; N and C are the ends.",
  "data": [
    {"compound": "CCCCC[C@H](O)/C=C/[C@H]1[C@H](O)CC(=O)[C@@H]1C/C=C\\CCCC(=O)O", "note": "[prostaglandin E₂]", "values": [
      {"measurement": "IC50", "setting": "[1]; Gallus gallus, Osteoclast, 24 h, Graph 2a, 1 day resorption assay, read-out: IC₅₀ of resorption", "value": 1, "unit": "µM"}
    ]},
    {"compound": "H-ECESGPCCRNCKFLKEGTICKRARGDDMDDYCNGKTCDCPRNPHKGPAT-OH (disulfide 2-11, 7-32, 8-37, 20-39 (inferred)) [Synthetic Echistatin]", "values": [
      {"measurement": "attachment of bone particles to osteoclasts", "setting": "[2]; 100 nM, up to 150 min", "value": "significantly inhibited"}
    ]},
    {"compound": "Ala²⁴ echistatin", "values": [
      {"measurement": "kinetics of bone attachment to osteoclasts", "setting": "[2]; 10 nM", "value": "no significant effect"},
      {"measurement": "effects on the resorption activity", "setting": "[1]; range 1pM- 10 uM, P>0.07, Graph 3a", "value": "insignificant effects"},
      {"measurement": "concentration at which lamellipodia retracted", "setting": "[3]; rat osteoclasts 1 day after isolation on glass", "value": 34, "unit": "nM"},
      {"measurement": "concentration at which lamellipodia did not retract", "setting": "[3]; rat osteoclasts, followed for up to 2 hr", "value": 3.4, "unit": "nM"},
      {"measurement": "effects on the resorption activity", "setting": "[4]", "value": "insignificant effects"}
    ]}
  ]
}
